From US9409857B2 (SHANGHAI RIGHTHAND PHARMTECH. CO., LTD., priority 2012, dated 2016)
In brackets after ≈: the same amount, converted by molar mass. Several values for one entry are separate records, joined by “and”; a condition that tells them apart may be missing. Identical values can stand only once. Like-named read-outs stand apart in the source and are kept apart here.

Experiments:
[1] = Determination of stability under accelerated testing condition (HPLC total impurities); format: physicochemical; conditions: (40±2)°C, relative humidity (75±5)%, Batch 1-3 on separate table lines
Method: Conditions for chromatogram: octadecyl silane chemically bonded silica was used as a filler; a mixed solution wherein methanol-acetonitrile-phosphate buffer (10 mM/L, pH adjusted to 2.7 with phosphoric acid)=40:20:40 was used as mobile phase; column temperature was 40° C.; detecting wavelength was 220 nm. The purity of each of the products in the above described Example was determined using internal standard method. […] The stability of each of the batches was studied via High Performance Liquid Chromatography (HPLC) and the content percentage of the total related substances (total impurities) was determined in addition to the peaks of Agomelatine and acid radicals.

[2] = pH 7
[3] = physchem; conditions: thermodynamic from solid
[4] = Determination of water solubility by external standard method

total impurities % (total related substances) ([1]; time 0 month)	total impurities % (total related substances) ([1]; time 1 month)	total impurities % (total related substances) ([1]; time 2 months)	total impurities % (total related substances) ([1]; time 3 months)	total impurities % (total related substances) ([1]; time 6 months)	Agomelatine content (solubility) [2]	solubility ([3]; pH 7, aqueous buffer)	solubility ([3]; simulated gastric fluid)	solubility ([3]; water)	Compound	Agomelatine content (solubility) ([4]; pH = 7.0 buffer solution)	Agomelatine content (solubility) ([4]; pury water)
0.11% and 0.12% and 0.14%	0.12% and 0.14%	0.12% and 0.14% and 0.16%	0.14% and 0.16%	0.14% and 0.15% and 0.17%	–	–	–	–	Agomelatine benzenesulfonic acid complex	–	–
0.21% and 0.22% and 0.24%	0.22% and 0.24%	0.22% and 0.23% and 0.25%	0.23% and 0.25%	0.23% and 0.24% and 0.26%	320 µg/mL	–	–	–	COc1ccc2cccc(CCNC(C)=O)c2c1.CS(=O)(=O)O [Agomelatine methanesulfonic acid complex]	–	–
–	–	–	–	–	–	260 µg/mL (≈ 1070 µM)	290 µg/mL (≈ 1190 µM)	270 µg/mL (≈ 1110 µM)	COc1ccc2cccc(CCNC(C)=O)c2c1 [Agomelatine crystallographic form II, N-[2-(7-methoxyl-1-naphthyl)ethyl]acetamide]	–	–

Compound	total impurities % (total related substances) ([1]; time 0 month)	total impurities % (total related substances) ([1]; time 1 month)	total impurities % (total related substances) ([1]; time 2 months)	total impurities % (total related substances) ([1]; time 3 months)	total impurities % (total related substances) ([1]; time 6 months)	Agomelatine content (solubility) [2]	solubility ([3]; pH 7, aqueous buffer)	solubility ([3]; simulated gastric fluid)	solubility ([3]; water)	Agomelatine content (solubility) ([4]; pH = 7.0 buffer solution)	Agomelatine content (solubility) ([4]; pury water)
Agomelatine sulfuric acid complex	0.11% and 0.12% and 0.14%	0.12% and 0.14%	0.12% and 0.13% and 0.15%	0.13% and 0.15%	0.13% and 0.14% and 0.16%	–	–	–	–	330 µg/mL	340 µg/mL
